Target: Nanoluciferase-BRD9 fusion protein (3×FLAG-NLuc-BRD9) in SYO-1 cells (Homo sapiens (Human), UniProt Q9H8M2)
Experiment: SYO1 BRD9 NanoLuc degradation assay
Type: cell-based
Settings: SYO-1 cells expressing 3×FLAG-NLuc-BRD9, 6 hours incubation, top dose 1 μM
Outline: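 Degradation read as loss of NLuc signal after 6 h compound exposure (1 μM top final, 3-fold steps, 10 points, duplicates) in SYO-1 cells stably carrying 3×FLAG-NLuc-BRD9. Signal normalised between DMSO-treated cells and cells given 1 μM of a known BRD9 degrader.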

Sequence of Nanoluciferase-BRD9 fusion protein (3×FLAG-NLuc-BRD9) in SYO-1 cells (Q9H8M2 whole entry, the tested form may be a part): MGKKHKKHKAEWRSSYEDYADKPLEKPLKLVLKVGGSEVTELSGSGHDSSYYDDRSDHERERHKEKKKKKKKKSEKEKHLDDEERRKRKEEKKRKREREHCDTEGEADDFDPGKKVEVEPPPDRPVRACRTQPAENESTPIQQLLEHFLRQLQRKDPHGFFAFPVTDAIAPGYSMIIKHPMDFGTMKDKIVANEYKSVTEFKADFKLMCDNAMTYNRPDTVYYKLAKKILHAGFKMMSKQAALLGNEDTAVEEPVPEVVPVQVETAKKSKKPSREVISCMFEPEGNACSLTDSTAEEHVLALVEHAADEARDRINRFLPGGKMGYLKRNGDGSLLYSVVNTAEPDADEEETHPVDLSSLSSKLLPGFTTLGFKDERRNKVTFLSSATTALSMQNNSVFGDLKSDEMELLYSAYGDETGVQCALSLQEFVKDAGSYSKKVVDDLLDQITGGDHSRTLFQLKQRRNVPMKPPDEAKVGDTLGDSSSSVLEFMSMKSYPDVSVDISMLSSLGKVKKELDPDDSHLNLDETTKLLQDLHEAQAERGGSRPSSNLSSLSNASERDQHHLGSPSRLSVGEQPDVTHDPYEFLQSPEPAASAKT

IC50 | SMILES
< 10 nM | [2H]C1([2H])N(CCC2CCN(c3ccc4c(c3)C(=O)N(C3CCC(=O)NC3=O)C4=O)CC2)C([2H])([2H])C([2H])([2H])N(Cc2c(OC)cc(-c3cn(C)c(=O)c4c3CCN(C(=O)NC)C4)cc2OC)C1([2H])[2H] (stereo not shown) [Compound D105]
< 10 nM | CNC(=O)N1CCc2c(-c3cc(OC)c(C(C)N4CCC(CN5CCC6(CC5)CC(Oc5ccc7c(c5)C(=O)N(C5CCC(=O)NC5=O)C7=O)C6)CC4)c(OC)c3)cn(C)c(=O)c2C1 (stereo not shown) [Compound D106]
< 10 nM | CNC(=O)N1CCc2c(-c3cc(OC)c(CN4CC(C(C)N5CCC6(CC5)CN(c5ccc7c(c5)C(=O)N(C5CCC(=O)NC5=O)C7=O)C6)C4)c(OC)c3)cn(C)c(=O)c2C1 (stereo not shown) [Compound D107]
< 10 nM | CNC(=O)N1CCc2c(-c3cc(OC)c(CN4CC(CN5CCC6(CC5)CN(c5ccc7c(c5)C(=O)N(C5CCC(=O)NC5=O)C7=O)C6)C4)c(OC)c3)cn(C)c(=O)c2C1 (stereo not shown) [Compound D109]
< 10 nM | COc1cc(-c2cn(C)c(=O)c3c2CCN(C(=O)NCC2CC4(CCN(c5ccc6c(c5)C(=O)N(C5CCC(=O)NC5=O)C6=O)CC4)C2)C3)cc(OC)c1CN(C)C (stereo not shown) [Compound D110]
10 to 100 nM | CNC(=O)N1CCc2c(-c3cc(OC)c(CNc4ccc5c(c4)C(=O)N(C4CCC(=O)NC4=O)C5=O)c(OC)c3)cn(C)c(=O)c2C1 (stereo not shown) [Compound D111]
< 10 nM | CNC(=O)N1CCc2c(-c3cc(OC)c(CN(C)c4ccc5c(c4)C(=O)N(C4CCC(=O)NC4=O)C5=O)c(OC)c3)cn(C)c(=O)c2C1 (stereo not shown) [Compound D112]
< 10 nM | CNC(=O)N1CCc2c(-c3cc(OC)c(CN4CCC(CCN5CCC(c6ccc7c(c6)C(=O)N(C6CCC(=O)NC6=O)C7=O)CC5)CC4)c(OC)c3)cn(C)c(=O)c2C1 (stereo not shown) [Compound D113]
< 10 nM | CNC(=O)N1CCc2c(-c3cc(OC)c(CN4CCC(C(C)(C)N5CCC6(CC5)CC(Oc5ccc7c(c5)C(=O)N(C5CCC(=O)NC5=O)C7=O)C6)CC4)c(OC)c3)cn(C)c(=O)c2C1 (stereo not shown) [Compound D114]
< 10 nM | COc1cc(-c2cn(C)c(=O)c3c2CCN(C(=O)NCC2CC4(C2)CN(c2ccc5c(c2)C(=O)N(C2CCC(=O)NC2=O)C5=O)C4)C3)cc(OC)c1CN(C)C (stereo not shown) [Compound D115]
< 10 nM | CNC(=O)N1CCc2c(-c3cc(OC)c(CN4CC(Oc5ccc6c(c5)C(=O)N(C5CCC(=O)NC5=O)C6=O)C4)c(OC)c3)cn(C)c(=O)c2C1 (stereo not shown) [Compound D116]
< 10 nM | CNC(=O)N1CCc2c(-c3cc(OC)c(CN4CCN(CCN5CCC(c6ccc7c(c6)C(=O)N(C6CCC(=O)NC6=O)C7=O)CC5)CC4)c(OC)c3)cn(C)c(=O)c2C1 (stereo not shown) [Compound D117]
< 10 nM | CNC(=O)N1CCc2c(-c3cc(OC)c(CN4CCC(CCN5CCN(c6ccc7c(c6)C(=O)N(C6CCC(=O)NC6=O)C7=O)CC5)CC4)c(OC)c3)cn(C3CC3)c(=O)c2C1 (stereo not shown) [Compound D118]
< 10 nM | COc1cc(-c2cn(C)c(=O)c3c2CCN(C(=O)NC2CCC4CN(c5ccc6c(c5)C(=O)N(C5CCC(=O)NC5=O)C6=O)CC42)C3)cc(OC)c1CN(C)C (stereo not shown) [Compound D119]
100 to 1000 nM | COc1cc(-c2cn(C)c(=O)c3c2CCN(C(=O)NCC2CCC4(CCN(c5ccc6c(c5)C(=O)N(C5CCC(=O)NC5=O)C6=O)CC4)O2)C3)cc(OC)c1CN(C)C (stereo not shown) [Compound D120]
< 10 nM | COc1cc(-c2cn(C)c(=O)c3c2CCN(C(=O)NCC2COC4(CCN(c5ccc6c(c5)C(=O)N(C5CCC(=O)NC5=O)C6=O)CC4)C2)C3)cc(OC)c1CN(C)C (stereo not shown) [Compound D121]
10 to 100 nM | COc1cc(-c2cn(C)c(=O)c3c2CCN(C(=O)NCC2CC4CN(c5ccc6c(c5)C(=O)N([C@H]5CCC(=O)NC5=O)C6=O)CC4C2)C3)cc(OC)c1CN(C)C (stereo partly shown) [Compound D122]
< 10 nM | COc1cc(-c2cn(C)c(=O)c3c2CCN(C(=O)NCC2CC4CN(c5ccc6c(c5)C(=O)N([C@@H]5CCC(=O)NC5=O)C6=O)CC4C2)C3)cc(OC)c1CN(C)C (stereo partly shown) [Compound D123]
< 10 nM | CNC(=O)N1CCc2c(-c3cc(OC)c(CN4CC(C(C)(C)N5CCC6(CC5)CN(c5ccc7c(c5)C(=O)N(C5CCC(=O)NC5=O)C7=O)C6)C4)c(OC)c3)cn(C)c(=O)c2C1 (stereo not shown) [Compound D124]
< 10 nM | CNC(=O)N1CCc2c(-c3cc(OC)c(CN4CCC(CN(C(C)C)C5CC(Oc6ccc7c(c6)C(=O)N(C6CCC(=O)NC6=O)C7=O)C5)CC4)c(OC)c3)cn(C)c(=O)c2C1 (stereo not shown) [Compound D125]
100 to 1000 nM | CNC(=O)N1CCc2c(-c3cc(OC)c(CN4CC5(CCN(C(C)(C)C#Cc6ccc7c(c6)C(=O)N(C6CCC(=O)NC6=O)C7=O)CC5)C4)c(OC)c3)cn(C)c(=O)c2C1 (stereo not shown) [Compound D126]
< 10 nM | CNC(=O)N1CCc2c(-c3cc(OC)c(CN4CCC(=CCN5CCN(c6ccc7c(c6)C(=O)N(C6CCC(=O)NC6=O)C7=O)CC5)CC4)c(OC)c3)cn(C)c(=O)c2C1 (stereo not shown) [Compound D127]
< 10 nM | CNC(=O)N1CCc2c(-c3cc(OC)c(CN4CCC(C(C)N5CCC6(CC5)CC(Oc5ccc7c(c5)C(=O)N(C5CCC(=O)NC5=O)C7=O)C6)CC4)c(OC)c3)cn(C)c(=O)c2C1 (stereo not shown) [Compound D128]

IC50 | SMILES
10 to 100 nM | CNC(=O)N1CCc2c(-c3cc(OC)c(CN4CC5CC4CC5CN4CCN(c5ccc6c(c5)C(=O)N(C5CCC(=O)NC5=O)C6=O)CC4)c(OC)c3)cn(C)c(=O)c2C1 (stereo not shown) [Compound D129]
< 10 nM | CNC(=O)N1CCc2c(-c3cc(OC)c(CC4CCN(CCN5CCN(c6ccc7c(c6)C(=O)N(C6CCC(=O)NC6=O)C7=O)CC5)CC4)c(OC)c3)cn(C)c(=O)c2C1 (stereo not shown) [Compound D130]
< 10 nM | CNC(=O)N1CCc2c(-c3cc(OC)c(CN4CCN(c5ccc6c(c5)C(=O)N(C5CCC(=O)NC5=O)C6=O)CC4)c(OC)c3)cn(C)c(=O)c2C1 (stereo not shown) [Compound D131]
< 10 nM | CNC(=O)N1CCc2c(-c3cc(OC)c(CN4CC(N5CCN(c6ccc7c(c6)C(=O)N(C6CCC(=O)NC6=O)C7=O)CC5)C4)c(OC)c3)cn(C)c(=O)c2C1 (stereo not shown) [Compound D132]
< 10 nM | CNC(=O)N1CCc2c(-c3cc(OC)c(CN4CCC(CN5CCC6(CC5)CN(c5ccc7c(c5)C(=O)N(C5CCC(=O)NC5=O)C7=O)C6)CC4)c(OC)c3)cn(C)c(=O)c2C1 (stereo not shown) [Compound D136]
10 to 100 nM | CNC(=O)N1CCc2c(-c3cc(OC)c(CN4CCC5(CC4)CCN(C(C)(C)C#Cc4ccc6c(c4)C(=O)N(C4CCC(=O)NC4=O)C6=O)C5)c(OC)c3)cn(C)c(=O)c2C1 (stereo not shown) [Compound D137]
< 10 nM | CNC(=O)N1CCc2c(-c3cc(OC)c(CN4CC5CC4CC5CCN4CCN(c5ccc6c(c5)C(=O)N(C5CCC(=O)NC5=O)C6=O)CC4)c(OC)c3)cn(C)c(=O)c2C1 (stereo not shown) [Compound D138]
< 10 nM | CNC(=O)N1CCc2c(-c3cc(OC)c(CN4CCN(CCN5CCN(c6ccc7c(c6)C(=O)N(C6CCC(=O)NC6=O)C7=O)CC5)CC4)c(OC)c3)cn(C)c(=O)c2C1 (stereo not shown) [Compound D139]
< 10 nM | CNC(=O)N1CCc2c(-c3cc(OC)c(CN4CCC5(CC4)CN(CCCN4CCN(c6ccc7c(c6)C(=O)N(C6CCC(=O)NC6=O)C7=O)CC4)CCO5)c(OC)c3)cn(C)c(=O)c2C1 (stereo not shown) [Compound D140]
< 10 nM | CNC(=O)N1CCc2c(-c3cc(OC)c(CN4[C@H](C)CN(CCC5CCN(c6ccc7c(c6)C(=O)N(C6CCC(=O)NC6=O)C7=O)CC5)C[C@@H]4C)c(OC)c3)cn(C)c(=O)c2C1 (stereo partly shown) [Compound D141]
< 10 nM | CNC(=O)N1CCc2c(-c3cc(OC)c(CN4CC(C#Cc5ccc6c(c5)C(=O)N(C5CCC(=O)NC5=O)C6=O)C4)c(OC)c3)cn(C)c(=O)c2C1 (stereo not shown) [Compound D142]
< 10 nM | CNC(=O)N1CCc2c(-c3cc(OC)c(CN4CCC(C#Cc5ccc6c(c5)C(=O)N(C5CCC(=O)NC5=O)C6=O)CC4)c(OC)c3)cn(C)c(=O)c2C1 (stereo not shown) [Compound D143]
10 to 100 nM | CNC(=O)N1CCc2c(-c3cc(OC)c(CN4CC(C(=O)N5CC6(CCN(c7ccc8c(c7)C(=O)N(C7CCC(=O)NC7=O)C8=O)C6)C5)C4)c(OC)c3)cn(C)c(=O)c2C1 (stereo not shown) [Compound D144]
< 10 nM | CNC(=O)N1CCc2c(-c3cc(OC)c(CN4CCC(CCN5C(C)CN(c6ccc7c(c6)C(=O)N(C6CCC(=O)NC6=O)C7=O)CC5C)CC4)c(OC)c3)cn(C)c(=O)c2C1 (stereo not shown) [Compound D145]
< 10 nM | CNC(=O)N1CCc2c(-c3cc(OC)c(CN4CC5(CC(N6CCN(c7ccc8c(c7)C(=O)N(C7CCC(=O)NC7=O)C8=O)CC6)C5)C4)c(OC)c3)cn(C)c(=O)c2C1 (stereo not shown) [Compound D146]
< 10 nM | CNC(=O)N1CCc2c(-c3cc(OC)c(CN4CCC(F)(CN5CCN(c6ccc7c(c6)C(=O)N(C6CCC(=O)NC6=O)C7=O)CC5)CC4)c(OC)c3)cn(C)c(=O)c2C1 (stereo not shown) [Compound D147]
10 to 100 nM | CNC(=O)N1CCc2c(-c3cc(OC)c(CN4CCC(CCN5CCN(c6ccc7c(c6)C(=O)N(C6CCC(=O)NC6=O)C7=O)CC5)C4)c(OC)c3)cn(C)c(=O)c2C1 (stereo not shown) [Compound D148]
< 10 nM | CNC(=O)N1CCc2c(-c3cc(OC)c(CN4CCC(CN(C)C5CC(Oc6ccc7c(c6)C(=O)N(C6CCC(=O)NC6=O)C7=O)C5)CC4)c(OC)c3)cn(C)c(=O)c2C1 (stereo not shown) [Compound D149]
10 to 100 nM | COc1cc(-c2cn(C)c(=O)c3c2CCN(C(=O)NCCN2CCN(c4ccc5c(c4)C(=O)N(C4CCC(=O)NC4=O)C5=O)CC2)C3)cc(OC)c1CN(C)C (stereo not shown) [Compound D150]
< 10 nM | CNC(=O)N1CCc2c(-c3cc(OC)c(CN4CCOC(CCCN5CCN(c6ccc7c(c6)C(=O)N(C6CCC(=O)NC6=O)C7=O)CC5)C4)c(OC)c3)cn(C)c(=O)c2C1 (stereo not shown) [Compound D151]
< 10 nM | CNC(=O)N1CCc2c(-c3cc(OC)c(CN4CCOC(CCN5CCN(c6ccc7c(c6)C(=O)N(C6CCC(=O)NC6=O)C7=O)CC5)C4)c(OC)c3)cn(C)c(=O)c2C1 (stereo not shown) [Compound D152]
< 10 nM | CNC(=O)N1CCc2c(-c3cc(OC)c(CN4CCC(C(F)(F)CN5CCN(c6ccc7c(c6)C(=O)N(C6CCC(=O)NC6=O)C7=O)CC5)CC4)c(OC)c3)cn(C)c(=O)c2C1 (stereo not shown) [Compound D154]

SMILES | IC50
CNC(=O)N1CCc2c(-c3cc(OC)c(CN4CCC(CCN5C6CC5CN(c5ccc7c(c5)C(=O)N(C5CCC(=O)NC5=O)C7=O)C6)CC4)c(OC)c3)cn(C)c(=O)c2C1 (stereo not shown) [Compound D153] | 10 to 100 nM

From patent US12384776B2, “Compounds and uses thereof” (Foghorn Therapeutics Inc., priority 2019, dated 2025)
